Common to all, as to type: in vivo
The subject of assay [1] is seizures in human patient. Put plainly: Example 8 pediatric patient with Lennox-Gastaut. The following applies: THC 8 mg BID (16 mg TDD) orally in combination with Epidiolex (CBD) 150 mg BID. The method, then:
The other pediatric patient was a patient, diagnosed with Lennox-Gastout in 2008, suffered from multiple seizure types and went through corpus callosotomy in January 2017 after failure of vagus nerve stimulation (VNS). […] The patient was first evaluated for cannabinoid treatment on Aug. 3, 2017, and was prescribed CBD with 0.3% THC 10 mg BID (Charlotte's Web). […] After discharge from the hospital, the patient's GTCs worsened and were no longer responsive to felbamate. […] This patient was 35.45 kg, so the CBD daily dose was 3.3 mg/kg (well below the therapeutic dosages for Epidiolex). However patient was still having frequent tonic, myoclonic, and GTC seizures per day. […] When the dose was 300 mg Epidiolex daily, the patient was 40.5 kg, so the CBD daily dose was 7.4 mg/kg (below the therapeutic dosages for Epidiolex for Lennox Gastaut Syndrome).

Assay [2] relates to seizures in human patient. Put plainly: Example 3 human patient, GTC and complex partial seizures. An excerpt:
A patient first started having GTC and complex partial (CP) seizures. […] The patient was referred for evaluation for initiation of cannabinoid/THC treatment in March 2014.

The test system of assay [3] is GTC seizures in human patient. Nature of the assay: Example 7 human patient, intractable GTC seizures. As to conditions: 10 mg THC with 10 mg CBD orally daily at bedtime, with Trileptal and clonazepam. An excerpt: A patient was first diagnosed with intractable GTC seizures without status epilepticus in 2001.
The patient first presented for cannabinoid treatment on May 24, 2013. They were then a PhD student in economics. The patient's medical history is significant for having a car accident with a concussion and “scarring”. They developed GTC seizures occurring 3 times per month. […] In 2008, they started using recreational cannabis occasionally, but not regularly.

Regarding `CCCCCc1cc(O)c2c(c1)OC(C)(C)[C@@H]1CCC(C)=C[C@@H]21` [THC, Delta-9-tetrahydrocannabinol], the effect on seizures result in assay [1] is “further reduction in seizure frequency and duration”. The seizure status result in assay [2] (20 milligrams THC cannabis extract liquid orally in the morning and 5 mg THC content pill in the evening) is “remained seizure free”; in assay [2] (inhaled 16 mg cannabis wax in the morning and oral 20 milligrams THC cannabis extract liquid at night), “seizure free”. For the same molecule, in assay [3], the seizures entry is on record as “no seizures since restarting cannabinoids”.
